Like-named read-outs stand apart in the source and are kept apart here.
Columns and labels:
human TRPV3 = biological target: T1, human TRPV3 (Homo sapiens, UniProt Q8NET8); test: In vitro antagonism of recombinant human TRPV3 activation (FLIPR Tetra calcium assay); type: cell-based; conditions: HEK293 cells stably expressing human TRPV3, agonist 2-APB at 80 μM
T1 construct: expressed in transfected cells
T1 sequence (Q8NET8 1-790): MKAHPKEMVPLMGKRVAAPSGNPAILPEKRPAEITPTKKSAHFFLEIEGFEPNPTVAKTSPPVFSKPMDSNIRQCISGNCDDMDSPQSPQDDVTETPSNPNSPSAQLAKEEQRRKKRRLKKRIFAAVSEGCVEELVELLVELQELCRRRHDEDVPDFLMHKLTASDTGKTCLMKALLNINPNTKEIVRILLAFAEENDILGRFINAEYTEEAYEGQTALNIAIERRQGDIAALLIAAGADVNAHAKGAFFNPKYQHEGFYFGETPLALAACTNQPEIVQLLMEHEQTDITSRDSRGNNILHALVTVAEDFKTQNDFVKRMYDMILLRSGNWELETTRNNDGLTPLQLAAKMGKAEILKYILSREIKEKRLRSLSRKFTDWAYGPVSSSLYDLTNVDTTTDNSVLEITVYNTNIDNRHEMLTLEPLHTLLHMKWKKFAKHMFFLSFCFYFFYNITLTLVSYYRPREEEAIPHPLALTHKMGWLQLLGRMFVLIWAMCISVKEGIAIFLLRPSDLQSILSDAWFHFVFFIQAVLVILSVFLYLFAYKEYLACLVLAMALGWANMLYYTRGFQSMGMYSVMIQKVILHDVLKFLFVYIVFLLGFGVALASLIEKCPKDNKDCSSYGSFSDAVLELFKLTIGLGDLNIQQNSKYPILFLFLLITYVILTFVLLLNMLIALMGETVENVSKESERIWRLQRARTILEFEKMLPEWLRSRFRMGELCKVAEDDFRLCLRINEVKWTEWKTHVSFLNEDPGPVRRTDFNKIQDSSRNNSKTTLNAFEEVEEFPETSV
Summary of the method: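 Calcium flux read over a 10 min run: compound added at 10 s to Calcium-4-loaded human TRPV3-HEK293 cells, agonist 2-APB (80 μM, its EC80) after 3 min. IC50 derived from peak-minus-baseline signal as percentage of uninhibited 2-APB response, typically averaged over at least two runs.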

[1] = In vitro human microsomal stability assay; type: in vitro ADME
Summary of the method: (§1)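 Metabolic stability was followed in NADPH-supplemented incubations at 37° C., using microsomes prepared from human liver or from Sprague-Dawley rat liver.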

[2] = In vitro rat microsomal stability assay; type: in vitro ADME, rat (Sprague-Dawley)
Summary of the method: as §1

[3] = actual measured value shown parenthetically, in most cases average of at least two runs, read-out: IC50
[4] = reported range, read-out: IC50 (range class)
[5] = human liver microsomes, 0.5 μM substrate, 0.25 mg/mL microsomal protein, pH 7.4, 37° C., NADPH, 30 minutes
[6] = rat liver microsomes (Sprague-Dawley), 0.5 μM substrate, 0.25 mg/mL microsomal protein, pH 7.4, 37° C., NADPH, 30 minutes
[7] = human, microsomes, 0.5 h, 0.5 μM, pH 7.4
[8] = Sprague-Dawley, rat, microsomes, 0.5 h, 0.5 μM, pH 7.4

Row | SMILES | IC50 (human TRPV3; [3]) [nM] | IC50 (human TRPV3; [4]) [nM] | HUMAN MICROSOMAL STABILITY (% REMAINING AFTER 30 MINUTES) [1, 7] [%] | RAT MICROSOMAL STABILITY (% REMAINING AFTER 30 MINUTES) [2, 8] [%] | HUMAN MICROSOMAL STABILITY (% REMAINING AFTER 30 MINUTES) [1, 5] [%] | RAT MICROSOMAL STABILITY (% REMAINING AFTER 30 MINUTES) [2, 6] [%]
1 | OC(c1ccccn1)C1(c2ccccc2F)CCCO1 (centres unmarked) [Example 102] | > 20000 | > 20000 |  |  | 45 | 0.55
2 | OC(c1ccccn1)C1(c2ccccc2F)CCCO1 (stereo not drawn) [Example 103, (syn)-[2-(2-fluorophenyl)tetrahydrofuran-2-yl](pyridin-2-yl)methanol] | 2000 |  | 73 | 0.012 |  | 
3 | Cl.O[C@H](c1ccccn1)C1(c2ccc(Cl)c(Cl)c2)CC(F)(F)C1 [Example 111, (S)-[1-(3,4-dichlorophenyl)-3,3-difluorocyclobutyl](pyridin-2-yl)methanol hydrochloride] | 190 |  |  |  | 52 | 23
4 | OC(c1ccccn1)C1(c2ccc(OC(F)(F)F)cc2)CC(F)(F)C1 (centres unmarked) [Example 112, {3,3-difluoro-1-[4-(trifluoromethoxy)phenyl]cyclobutyl}(pyridin-2-yl)-methanol] | 300 |  | 75 | 75 |  | 
5 | OC(c1ccccn1)C1(c2cccc(C(F)(F)F)c2)CC(F)(F)C1 (centres unmarked) [Example 113, {3,3-difluoro-1-[3-(trifluoromethyl)phenyl]cyclobutyl}(pyridin-2-yl)-methanol] | 260 |  | 24 | 18 |  | 
6 | OC(c1ccccn1)C1(c2cccc(OC(F)(F)F)c2)CC(F)(F)C1 (centres unmarked) [Example 114, {3,3-difluoro-1-[3-(trifluoromethoxy)phenyl]cyclobutyl}(pyridin-2-yl)-methanol] | 230 |  | 6.9 | 11 |  | 
7 | OC(c1ccccn1)C1(c2cc(C(F)(F)F)ccn2)CCC1 (centres unmarked) [Example 116, pyridin-2-yl{1-[4-(trifluoromethyl)pyridin-2-yl]cyclobutyl}methanol] | 750 |  | 37 | 25 |  | 
8 | O=C1CC(c2ccc(Cl)c(Cl)c2)([C@H](O)c2ccccn2)C1 [Example 117, 3-(3,4-dichlorophenyl)-3-[(S)-hydroxy(pyridin-2-yl)methyl]cyclobutanone] | 2420 |  | 18 | 50 |  | 
9 | O[C@@H](c1ccccn1)C1(c2cc(C(F)(F)F)ccn2)CCC1 [Example 122, (R)-pyridin-2-yl{1-[4-(trifluoromethyl)pyridin-2-yl]cyclobutyl}methanol] | > 20000 | > 20000 | 28 | 26 |  | 
10 | O[C@H](c1ccccn1)C1(c2cc(C(F)(F)F)ccn2)CCC1 [Example 123, (S)-pyridin-2-yl{1-[4-(trifluoromethyl)pyridin-2-yl]cyclobutyl}methanol] | 390 |  | 21 | 11 |  | 
11 | O[C@@H](c1ccccn1)C1(c2cc(C(F)(F)F)ccn2)CC(F)(F)C1 [Example 125, (R)-{3,3-difluoro-1-[4-(trifluoromethyl)pyridin-2-yl]cyclobutyl}(pyridin-2-yl)-methanol] | 18600 |  | 53 | 8.8 |  | 
12 | O[C@H](c1ccccn1)C1(c2cc(C(F)(F)F)ccn2)CC(F)(F)C1 [Example 126, (S)-{3,3-difluoro-1-[4-(trifluoromethyl)pyridin-2-yl]cyclobutyl}(pyridin-2-yl)methanol] | 820 |  | 21 | 7.7 |  | 
13 | COC1(OC)CC(c2ccc(OC(F)(F)F)cc2)(C(O)c2ccccn2)C1 (centres unmarked) [Example 129, {3,3-dimethoxy-1-[4-(trifluoromethoxy)phenyl]cyclobutyl}(pyridin-2-yl)-methanol] | 330 |  | 46 | 0.01 |  | 
14 | O[C@H](c1ccccn1)[C@@]1(c2ccc(Cl)c(Cl)c2)CCO1 [Example 135, (R)-[(2S)-2-(3,4-dichlorophenyl)oxetan-2-yl](pyridin-2-yl)methanol] | 1010 |  | 33 | 3.4 |  | 
15 | OC(c1ccccn1)C1(c2ccc(C(F)(F)F)cn2)CC(F)(F)C1 (centres unmarked) [Example 137, {3,3-difluoro-1-[5-(trifluoromethyl)pyridin-2-yl]cyclobutyl}(pyridin-2-yl)-methanol] | 4870 |  | 77 | >85 |  | 

The next lines start with results.

Row | IC50 (human TRPV3; [3]) [nM] | IC50 (human TRPV3; [4]) [nM] | HUMAN MICROSOMAL STABILITY (% REMAINING AFTER 30 MINUTES) [1, 7] [%] | RAT MICROSOMAL STABILITY (% REMAINING AFTER 30 MINUTES) [2, 8] [%] | SMILES | HUMAN MICROSOMAL STABILITY (% REMAINING AFTER 30 MINUTES) [1, 5] [%] | RAT MICROSOMAL STABILITY (% REMAINING AFTER 30 MINUTES) [2, 6] [%]
16 | 500 |  | 8.0 | 2.8 | OC(c1ccccn1)C1(c2cncc(C(F)(F)F)c2)CCC1 (centres unmarked) [Example 110, pyridin-2-yl{1-[5-(trifluoromethyl)pyridin-3-yl]cyclobutyl}methanol] |  | 
17 | 19400 |  | >85 | 81 | OC(c1ccccn1)C1(c2ccc(C(F)(F)F)cn2)CCC1 (centres unmarked) [Example 115, pyridin-2-yl{1-[5-(trifluoromethyl)pyridin-2-yl]cyclobutyl}methanol] |  | 
18 | > 20000 | > 20000 | 1.6 | <0.01 | Nc1cccnc1C(O)C1(c2cccc(C(F)(F)F)c2)CCC1 (centres unmarked) [Example 120, (3-aminopyridin-2-yl) {1-[3-(trifluoromethyl)phenyl]cyclobutyl}methanol] |  | 
19 | > 20000 | > 20000 | 41 | 0.18 | Nc1cccnc1C(O)C1(c2ccc(OC(F)(F)F)cc2)CCC1 (centres unmarked) [Example 121, (3-aminopyridin-2-yl) {1-[4-(trifluoromethoxy)phenyl]cyclobutyl}methanol] |  | 
20 | > 20000 | > 20000 | 1.6 | <0.01 | Nc1cccnc1C(O)C1(c2cccc(OC(F)(F)F)c2)CCC1 (centres unmarked) [Example 124, (3-aminopyridin-2-yl) {1-[3-(trifluoromethoxy)phenyl]cyclobutyl}methanol] |  | 
21 | 11600 |  | 51 | 1.1 | Nc1cccnc1C(O)C1(c2ccc(C(F)(F)F)cc2)CCC1 (centres unmarked) [Example 127, (3-aminopyridin-2-yl) {1-[4-(trifluoromethyl)phenyl]cyclobutyl}methanol] |  | 
22 | 3110 |  | 4.0 | <0.01 | Nc1cccnc1C(O)C1(c2ccc(Cl)c(Cl)c2)CCC1 (centres unmarked) [Example 130, (3-aminopyridin-2-yl)[1-(3,4-dichlorophenyl)cyclobutyl]methanol] |  | 
23 | 120 |  | 73 | 61 | OC(c1ccccn1)C1(c2ccc(C(F)(F)F)cc2)CC(F)(F)C1 (centres unmarked) [Example 133, {3,3-difluoro-1-[4-(trifluoromethyl)phenyl]cyclobutyl}(pyridin-2-yl)-methanol] |  | 

Source: patent US8772499B2, “TRPV3 modulators” (AbbVie Inc., priority 2011, dated 2014)
